Measurements from patent US12257264B2, “Combination therapy for HIV with adenosine derivative and capsid inhibitors” (Brii Biosciences, Inc., priority 2021, dated 2025).
Values joined by “and” are separate entries in the source; they are usually repeats but may differ in a detail not shown here. Identical values can stand only once.

Test: Plasma exposures following IV infusion alone or in combination to Sprague-Dawley rats
Settings: for Lenacapavir Concentrations in Rat Plasma When Dosed with Prodrug formula 4-A: Lenacapavir IV infusion 1.0 mg/kg with Prodrug formula 4-A
Procedure: The pharmacokinetics of EFdA and prodrug formula 4-A, as well as lenacapavir were studied in rats after IV infusion administration alone or in combination at a dose of 1.0 mg/kg each.
Formulations: The prodrugs and lenacapavir were formulated alone or in combination as solutions at 1.0 mg/mL each in 20% […], 10% Solutol aqueous solution within 0.5 hour prior to dose.
Dose Administration and Sample Collection: The in-life phase of this study was conducted at the WuXi Apptec (WuXi) at Shanghai, China in accordance with the WuXi Institutional Animal Care and Use Committee (IACUC) standard animal procedures along with the IACUC guidelines that are in compliance with the Animal Welfare Act, the Guide for the Care and Use of Laboratory Animals. and was approved by the IACUA Committee. Male Sprague-Dawley rats (0.262+/−0.019 kg) were used for the studies. Each drug was administered as a single dose by 30-min IV infusion (1 ml/kg) alone or in combination. Plasma samples were collected at 0 (pre-dose), 5, 10, 15 and 30 min, 1, 2, 4, 7, 12 and 24 h post-dose. Blood (approximately 0.1 mL) was processed immediately for plasma by centrifugation at 3,200 g at 4° C. for 10 min within half an hour of collection. Plasma samples were frozen and maintained at −70° C. until analyzed. To stabilize the prodrug at the sample collection and subsequent analysis, the following stabilizing reagents were added to the blood collection K2EDTA tubes on wet ice prior to sample collection: for each 100 mL of blood, 10 mL of premade inhibitor cocktail consists of 600 mM Citric Acid, 400 mM PMSF, 400 mM NaF, and 400 mM Dichlorvos.
Determination of EFdA and Prodrugs in plasma: Briefly, plasma (20 μL) was mixed with 100 l acetonitrile to precipitate protein. Consistent with sample collection procedure, the same cocktail protocol was also added to stabilize the prodrug in the standard and QC samples.
Bioanalysis: A Sciex API-6500 Plus triplequadrupole mass spectrometer coupled with a Waters Acquity UPLC system (Framingham, MA 01701) was used for quantitative analysis of plasma samples. The column was a Waters HSS T3 column (2.1×50 mm, 1.8 micrometer). The mobile phases used were: A, 0.1% formic acid in water; B, 0.1% formic acid in acetonitrile. For the analysis of EFdA and prodrugs in plasma, the flow rate was 0.6 mL/min with a total run time of 2.0 min. […] Detection of the prodrug and EFdA were achieved using positive ion electrospray mass spectroscopic mode using unit resolution mode. Multiple reaction monitoring (MRM) modes were used to quantify both prodrug and EFdA, e.g. the MRM transition for EFdA was 294.0-154.2 Da, and the transition for prodrug 4-A was 449.3-164.9 Da. For the analysis of lenacapavir in plasma, the flow rate was 0.7 mL/min with a total run time of 1.5 min. The HPLC gradient was initiated at 95% A/5% B for 0.50 min, followed by linear gradient increase to […] over the next 0.2 min; the gradient was subsequently maintained at 100% of mobile B over the next 0.7 min before ramping down to 95% mobile phase A within the following 0.1 min. Detection of lenacapavir was achieved using positive ion electrospray mass spectroscopic mode using unit resolution mode. Multiple reaction monitoring (MRM) modes were used to quantify lenacapavir, e.g. the MRM transition for lenacapavir was 968.1-869.4 Da. Peak areas were integrated by the Sciex program Analyst®, version 1.6.3, operating on a Windows 7 computer where concentrations were determined by a weighted (1/x2) linear regression of peak area ratios (peak area of EFdA/peak area of corresponding IS) versus the nominal concentrations of the plasma calibration standards. Calculations were performed on unrounded numbers. Overall, Analyst® determined the precision and accuracy for the calibration standards and QC samples.

Lenacapavir Concentrations in Rat Plasma When Dosed Alone (Lenacapavir IV infusion 1.0 mg/kg alone, 0.0830 hrs, individual animals): 485 ng/mL and 603 ng/mL and 667 ng/mL
Lenacapavir Concentrations in Rat Plasma When Dosed Alone (Lenacapavir IV infusion 1.0 mg/kg alone, 0.167 hrs, individual animals): 845 ng/mL and 682 ng/mL and 734 ng/mL
Lenacapavir Concentrations in Rat Plasma When Dosed Alone (Lenacapavir IV infusion 1.0 mg/kg alone, 0.250 hrs, individual animals): 810 ng/mL and 801 ng/mL and 894 ng/mL
Lenacapavir Concentrations in Rat Plasma When Dosed Alone (Lenacapavir IV infusion 1.0 mg/kg alone, 0.500 hrs, individual animals): 612 ng/mL and 580 ng/mL and 984 ng/mL
Lenacapavir Concentrations in Rat Plasma When Dosed Alone (Lenacapavir IV infusion 1.0 mg/kg alone, 1.00 hrs, individual animals): 166 ng/mL and 222 ng/mL and 240 ng/mL
Lenacapavir Concentrations in Rat Plasma When Dosed Alone (Lenacapavir IV infusion 1.0 mg/kg alone, 2.00 hrs, individual animals): 104 ng/mL and 149 ng/mL and 164 ng/mL
Lenacapavir Concentrations in Rat Plasma When Dosed Alone (Lenacapavir IV infusion 1.0 mg/kg alone, 4.00 hrs, individual animals): 102 ng/mL and 157 ng/mL and 195 ng/mL
Lenacapavir Concentrations in Rat Plasma When Dosed Alone (Lenacapavir IV infusion 1.0 mg/kg alone, 12.0 hrs, individual animals): 79.4 ng/mL and 106 ng/mL and 139 ng/mL
Lenacapavir Concentrations in Rat Plasma When Dosed Alone (Lenacapavir IV infusion 1.0 mg/kg alone, 24.0 hrs, individual animals): 123 ng/mL and 141 ng/mL and 139 ng/mL
Lenacapavir Concentrations in Rat Plasma When Dosed with Prodrug formula 4-A (0.0830 hrs, individual animals): 460 ng/mL and 391 ng/mL and 314 ng/mL
Lenacapavir Concentrations in Rat Plasma When Dosed with Prodrug formula 4-A (0.167 hrs, individual animals): 479 ng/mL and 589 ng/mL and 415 ng/mL
Lenacapavir Concentrations in Rat Plasma When Dosed with Prodrug formula 4-A (0.250 hrs, individual animals): 623 ng/mL and 664 ng/mL and 375 ng/mL
Lenacapavir Concentrations in Rat Plasma When Dosed with Prodrug formula 4-A (0.500 hrs, individual animals): 643 ng/mL and 714 ng/mL and 448 ng/mL
Lenacapavir Concentrations in Rat Plasma When Dosed with Prodrug formula 4-A (1.00 hrs, individual animals): 170 ng/mL (2×) and 107 ng/mL
Lenacapavir Concentrations in Rat Plasma When Dosed with Prodrug formula 4-A (2.00 hrs, individual animals): 135 ng/mL and 105 ng/mL and 94.7 ng/mL
Lenacapavir Concentrations in Rat Plasma When Dosed with Prodrug formula 4-A (4.00 hrs, individual animals): 93.1 ng/mL and 101 ng/mL and 80.9 ng/mL
concentration at 48 h (male, Sprague-Dawley, rat, in vivo, 1 mg/kg, Lenacapavir Concentrations in Rat Plasma When Dosed Alone): 107 ng/mL
concentration at 0.083 h (male, Sprague-Dawley, rat, in vivo, 1 mg/kg, Lenacapavir Concentrations in Rat Plasma When Dosed Alone, Lenacapavir IV infusion 1.0 mg/kg alone, 0.0830 hrs, Mean): 612 ng/mL
concentration at 0.083 h (male, Sprague-Dawley, rat, in vivo, 1 mg/kg, Lenacapavir Concentrations in Rat Plasma When Dosed Alone, Lenacapavir IV infusion 1.0 mg/kg alone, 0.0830 hrs, individual animals): 692 ng/mL
concentration at 0.167 h (male, Sprague-Dawley, rat, in vivo, 1 mg/kg, Lenacapavir Concentrations in Rat Plasma When Dosed Alone, Lenacapavir IV infusion 1.0 mg/kg alone, 0.167 hrs, Mean): 739 ng/mL
concentration at 0.167 h (male, Sprague-Dawley, rat, in vivo, 1 mg/kg, Lenacapavir Concentrations in Rat Plasma When Dosed Alone, Lenacapavir IV infusion 1.0 mg/kg alone, 0.167 hrs, individual animals): 694 ng/mL
concentration at 0.25 h (male, Sprague-Dawley, rat, in vivo, 1 mg/kg, Lenacapavir Concentrations in Rat Plasma When Dosed Alone, Lenacapavir IV infusion 1.0 mg/kg alone, 0.250 hrs, Mean): 825 ng/mL
Structure (SMILES): CC(C)(C#Cc1ccc(-c2ccc(Cl)c3c(NS(C)(=O)=O)nn(CC(F)(F)F)c23)c([C@H](Cc2cc(F)cc(F)c2)NC(=O)Cn2nc(C(F)(F)F)c3c2C(F)(F)[C@@H]2C[C@H]32)n1)S(C)(=O)=O [Lenacapavir, reference compound]
Lenacapavir Concentrations in Rat Plasma When Dosed Alone (Lenacapavir IV infusion 1.0 mg/kg alone, 7.00 hrs, individual animals): 185 ng/mL and 84.6 ng/mL and 141 ng/mL and 142 ng/mL
Lenacapavir Concentrations in Rat Plasma When Dosed Alone (Lenacapavir IV infusion 1.0 mg/kg alone, 72.0 hrs, individual animals): 51.3 ng/mL and 59.7 ng/mL and 57.2 ng/mL and 110 ng/mL
Lenacapavir Concentrations in Rat Plasma When Dosed with Prodrug formula 4-A (7.00 hrs, individual animals): 140 ng/mL and 101 ng/mL and 72.3 ng/mL and 58.8 ng/mL
Lenacapavir Concentrations in Rat Plasma When Dosed with Prodrug formula 4-A (12.0 hrs, individual animals): 139 ng/mL and 137 ng/mL and 158 ng/mL and 78.6 ng/mL
Lenacapavir Concentrations in Rat Plasma When Dosed with Prodrug formula 4-A (24.0 hrs, individual animals): 129 ng/mL and 164 ng/mL and 176 ng/mL and 62.5 ng/mL
Lenacapavir Concentrations in Rat Plasma When Dosed with Prodrug formula 4-A (72.0 hrs, individual animals): 40.1 ng/mL and 97.8 ng/mL and 97.2 ng/mL and 98.0 ng/mL
